The results in this text go back to patent publication US20190270778A1, “Cyclic Peptides As C5a Receptor Antagonists” (priority 2016, published 2019).

Where two headings read alike, the source gives them in different places.

The conditions of data set [1]: the molecule shown is the open-chain precursor, amide bond, 18-membered ring.
Data set [2] concerns the target T1, C5a receptor (Homo sapiens, UniProt P21730).
T1 construct: endogenous in cells; host or cells: leukocytes/granulocytes in freshly drawn whole blood of healthy volunteers
T1 sequence (P21730 1-350): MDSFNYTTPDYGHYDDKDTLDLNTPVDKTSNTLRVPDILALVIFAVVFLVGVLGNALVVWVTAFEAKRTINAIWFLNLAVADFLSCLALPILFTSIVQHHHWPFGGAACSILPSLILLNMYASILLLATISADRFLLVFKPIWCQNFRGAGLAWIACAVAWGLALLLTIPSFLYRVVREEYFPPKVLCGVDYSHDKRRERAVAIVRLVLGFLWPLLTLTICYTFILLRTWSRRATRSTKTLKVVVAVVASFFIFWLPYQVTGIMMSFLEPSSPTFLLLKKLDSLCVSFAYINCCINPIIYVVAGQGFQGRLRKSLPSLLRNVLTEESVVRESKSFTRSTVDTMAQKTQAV
Kind of data set: HWB oxidative burst assay (C5a-induced, luminol chemiluminescence). It counts as cell-based. The method, then: Inhibition of oxidative burst activity was determined in HWB primed with TNF-α and stimulated with C5a. C5a-induced oxidative burst response (generation of reactive oxygen species) was then detected in the presence of luminol as a chemiluminescent signal.
On the day of assay, HWB was collected from a healthy, non-medicated volunteer into tubes containing 3.8% sodium citrate (final sodium citrate concentration in HWB is 0.38%) and stored in a 37° C. water bath until use (no longer than 60 minutes).
To start the assay, TNF-α was added to HWB to a final concentration of 1.0 nM and 68 μL of this HWB/TNF-α mix was transferred to each well of a 384-well white Optiplate (assay plate). 4.0 μL of various concentrations of test agent were then added to the assay plate and mixed twice gently by aspirating up and down. The assay plate was then placed on a thermoshaker (JITTERBUG-4) and incubated at 37° C. (without shaking). After 60 minutes, C5a (Complement Technology) prepared in luminol (Sigma) was added to the assay plate and mixed twice gently by aspirating up and down. The plate was then placed in a ViewLux 1430 Microplate Imager (Perkin Elmer). After 5 minutes, oxidative burst activity was determined with the ViewLux by measuring luminol-enhanced whole blood chemiluminescence. Final assay conditions were 1.5 mM HEPES pH 7.5, 0.015% BSA, 15% HBSS, 0.85 ng/mL TNFα, 1.0 mM Luminol, C5a 20 nM, 76.5% HWB, 0.15% DMSO and various concentrations of test agent.
The percent (%) effect at each concentration of test agent was then calculated based on and relative to the amount of signal that was produced by positive (i.e. full inhibition of C5a induced oxidative burst) and negative (i.e. completely uninhibited C5a induced oxidative burst) control wells contained within each assay plate. The concentration and % effect values for test agents were plotted and the concentration of test agent required for 50% effect (IC50) was determined with a four-parameter logistic dose response equation (BioBook; IDBS). Kb (nM) was then calculated (BioBook; IDBS) using the equation described by Leff and Dougal (TIPS 1993 14:110-112).

In data set [3] the target is T1, C5a receptor. Put plainly: HWB CD11b expression assay (C5a-challenged granulocytes, flow cytometry). It counts as cell-based. The method, then:
HWB was collected from healthy, non-medicated volunteers into BD Vacutainer® blood collection tubes with K2EDTA as an anticoagulant. HWB was aliquoted (85 μL/well) in 96-well, deep-well, V-bottom plates and incubated at 37° C. for 30 minutes. Test compounds (5 μL/well) were added to HWB and incubated at 37° C. for 30 minutes. Anti-human CD11b antibody conjugated with APC (BD Biosciences) was added to HWB (5 μL/well) and incubated at 37° C. for additional 30 minutes. HWB was then challenged with human C5a (final 1 nM) for 30 minutes at 37° C. Samples were treated with warm 1× Lyse/Fix buffer (BD Biosciences) to terminate activation and further incubated at 37° C. for 20 minutes to lyse red blood cells. Assay plates were centrifuged at 300×g for 5 minutes, supernatant was aspirated, and cells were washed once with PBS containing 0.5% FBS. Washed cells were resuspended in PBS containing 0.5% FBS and subjected to flow cytometric analysis using an LSRFortessa equipped with a HTS plate loader (BD Biosciences). The granulocyte population was gated for analysis of MF of CD11b staining using FACSDiva version 6.2 (BD Biosciences). Data from 11 compound concentrations (singlicate at each concentration) was normalized as a percentage of control based on the formula:
% of Control=100×(A−B)/(C−B)
where A is MF from wells containing test compound and C5a, B is MF from wells without C5a (background MF from unstimulated samples) and C is MF from wells containing only C5a (maximum MF). Inhibition curves and IC50 values (test compound concentrations which produce 50% inhibition) were determined using the Prism version 5 software (GraphPad). HWB was also stimulated with 11 different concentrations of C5a to construct a responsive curve and to obtain EC50 value (the concentration of C5a that gives half-maximal response) and curve slope using the Prism version 5 software. Kb (nM) was then calculated using the equation described by Leff and Dougal (TIPS 1993 14:110-112).
Background: A flow cytometer gives signals particle by particle.

The compound “H-Pro((4S)-NHBoc)-dAla(3-(cis-4-hydroxycyclohexyl))-Trp(Boc)-Arg(Pbf)-Orn(Nα-[Boc-N(CH2CO2tBu)-Phe]; chain through Nδ)-OH” had a ring closure, crude yield in data set [1] (HATU/NMM, THF/DMF) of 100%.

“H-Hyp(CH2CO2tBu)-dAla(3-(cis-4-hydroxycyclohexyl))-Trp(Boc)-Arg(Pbf)-Orn(Nα-[Boc-N(CH2CO2tBu)-Phe]; chain through Nδ)-OH?”: the ring closure, crude yield in data set [1] amounted to 83%.

Compound “H-Hyp(tBu)-dAla(3-(cis-4-hydroxycyclohexyl))-Trp(Boc)-Arg(Pbf)-Orn(Nα-[N-(CH2CO2tBu)-MePhe]; chain through Nδ)-OH” gave a ring closure, crude yield in data set [1] of 100%.

Consider `CC(=O)N[C@@H]1C[C@H]2C(=O)N[C@H](C[C@H]3CC[C@@H](O)CC3)C(=O)N[C@@H](Cc3c[nH]c4ccccc34)C(=O)N[C@@H](CCCNC(=N)N)C(=O)NCCC[C@H](NC(=O)[C@H](Cc3ccccc3)NCC(=O)O)C(=O)N2C1` [Example 9, ((S)-1-(((3R,6S,9S,15S,19R,20aS)-6-((1H-indol-3-yl)methyl)-19-acetamido-9-(3-guanidinopropyl)-3-(((1s,4S)-4-hydroxycyclohexyl)methyl)-1,4,7,10,16-pentaoxoicosahydropyrrolo[1,2-a][1,4,7,10,13]pentaazacyclooctadecin-15-yl)amino)-1-oxo-3-phenylpropan-2-yl)glycine], for which the Kb stood at 1 nM in data set [2] and 32.6 nM in data set [3].

On to `N=C(N)NCCC[C@@H]1NC(=O)[C@H](Cc2c[nH]c3ccccc23)NC(=O)[C@@H](C[C@H]2CC[C@@H](O)CC2)NC(=O)[C@@H]2C[C@@H](OCC(=O)O)CN2C(=O)[C@@H](NC(=O)[C@H](Cc2ccccc2)NCC(=O)O)CCCNC1=O` [Example 2, 2-(((3R,6S,9S,15S,19R,20aS)-6-((1H-indol-3-yl)methyl)-15-((S)-2-((carboxymethyl)amino)-3-phenylpropanamido)-9-(3-guanidinopropyl)-3-(((1s,4S)-4-hydroxycyclohexyl)methyl)-1,4,7,10,16-pentaoxoicosahydropyrrolo[1,2-a][1,4,7,10,13]pentaazacyclooctadecin-19-yl)oxy)acetic Acid], for which the Kb in data set [2] was 3 nM; in data set [3], 28.8 nM.

Regarding `COc1ccc2[nH]cc(C[C@@H]3NC(=O)[C@@H](C[C@H]4CC[C@@H](O)CC4)NC(=O)[C@@H]4C[C@@H](O)CN4C(=O)[C@@H](NC(=O)[C@H](Cc4ccccc4)NCC(=O)O)CCCNC(=O)[C@H](CCCNC(=N)N)NC3=O)c2c1` [Example 4, ((S)-1-(((3R,6S,9S,15S,19R,20aS)-9-(3-guanidinopropyl)-19-hydroxy-3-(((1s,4S)-4-hydroxycyclohexyl)methyl)-6-((5-methoxy-1H-indol-3-yl)methyl)-1,4,7,10,16-pentaoxoicosahydropyrrolo[1,2-a][1,4,7,10,13]pentaazacyclooctadecin-15-yl)amino)-1-oxo-3-phenylpropan-2-yl)glycine], the Kb in data set [2] was found to be 3 nM; in data set [3], 53.8 nM.

Consider `Cc1cnn(C[C@@H]2NC(=O)[C@@H](C[C@H]3CC[C@@H](O)CC3)NC(=O)[C@@H]3C[C@@H](O)CN3C(=O)[C@@H](NC(=O)[C@H](Cc3ccccc3)NCC(=O)O)CCCNC(=O)[C@H](CCCNC(=N)N)NC2=O)c1` [Example 3, ((S)-1-(((3R,6S,9S,15S,19R,20aS)-9-(3-guanidinopropyl)-19-hydroxy-3-(((1s,4S)-4-hydroxycyclohexyl)methyl)-6-((4-methyl-1H-pyrazol-1-yl)methyl)-1,4,7,10,16-pentaoxoicosahydropyrrolo[1,2-a][1,4,7,10,13]pentaazacyclooctadecin-15-yl)amino)-1-oxo-3-phenylpropan-2-yl)glycine], for which the Kb in data set [2] came to 21.6 nM; in data set [3] it was 212 nM.

For `N=C(N)NCCC[C@@H]1NC(=O)[C@H](Cc2c[nH]c3ccccc23)NC(=O)[C@@H](C[C@H]2CC[C@@H](O)CC2)NC(=O)[C@@H]2C[C@@H](O)CN2C(=O)[C@@H](NC(=O)[C@H](Cc2ccccc2)NCC(=O)O)CCCNC1=O` [Example 1, ((S)-1-(((3R,6S,9S,15S,19R,20aS)-6-((1H-indol-3-yl)methyl)-9-(3-guanidinopropyl)-19-hydroxy-3-(((1s,4S)-4-hydroxycyclohexyl)methyl)-1,4,7,10,16-pentaoxoicosahydropyrrolo[1,2-a][1,4,7,10,13]pentaazacyclooctadecin-15-yl)amino)-1-oxo-3-phenylpropan-2-yl)glycine], the values for the Kb in data set [2] and in data set [3] were 1.6 nM and 13.1 nM, respectively.

Turning to `N=C(N)NCCC[C@@H]1NC(=O)[C@H](Cc2c[nH]c3ccccc23)NC(=O)[C@@H](C[C@H]2CC[C@@H](O)CC2)NC(=O)[C@@H]2C[C@@H](N)CN2C(=O)[C@@H](NC(=O)[C@H](Cc2ccccc2)NCC(=O)O)CCCNC1=O` [Example 8, ((S)-1-(((3R,6S,9S,15S,19R,20aS)-6-((1H-indol-3-yl)methyl)-19-amino-9-(3-guanidinopropyl)-3-(((1s,4S)-4-hydroxycyclohexyl)methyl)-1,4,7,10,16-pentaoxoicosahydropyrrolo[1,2-a][1,4,7,10,13]pentaazacyclooctadecin-15-yl)amino)-1-oxo-3-phenylpropan-2-yl)glycine], the Kb was 4 nM in data set [2] and 19.8 nM in data set [3].

In the case of `N=C(N)NCCC[C@@H]1NC(=O)[C@H](Cc2c[nH]c3ccccc23)NC(=O)[C@@H](C[C@H]2CC[C@@H](O)CC2)NC(=O)[C@@H]2C[C@H](NCC(=O)O)CN2C(=O)[C@@H](NC(=O)[C@H](Cc2ccccc2)NCC(=O)O)CCCNC1=O` [Example 12, ((31R,6S,9S,15S,19S,20aS)-6-((1H-indol-3-yl)methyl)-15-((S)-2-((carboxymethyl)amino)-3-phenylpropanamido)-9-(3-guanidinopropyl)-3-(((1s,4S)-4-hydroxycyclohexyl)methyl)-1,4,7,10,16-pentaoxoicosahydropyrrolo[1,2-a][1,4,7,10,13]pentaazacyclooctadecin-19-yl)glycine], the values for the Kb in data set [2] and in data set [3] were 1.3 nM and 32.6 nM, respectively.

As to `CCc1ccc2c(C[C@@H]3NC(=O)[C@@H](C[C@H]4CC[C@@H](O)CC4)NC(=O)[C@@H]4C[C@@H](O)CN4C(=O)[C@@H](NC(=O)[C@H](Cc4ccccc4)NCC(=O)O)CCCNC(=O)[C@H](CCCNC(=N)N)NC3=O)c[nH]c2c1` [Example 17, ((S)-1-(((31R,6S,9S,15S,19R,20aS)-6-((6-ethyl-1H-indol-3-yl)methyl)-9-(3-guanidinopropyl)-19-hydroxy-3-(((1s,4S)-4-hydroxycyclohexyl)methyl)-1,4,7,10,16-pentaoxoicosahydropyrrolo[1,2-a][1,4,7,10,13]pentaazacyclooctadecin-15-yl)amino)-1-oxo-3-phenylpropan-2-yl)glycine], the Kb in data set [2] worked out at 29.7 nM; in data set [3], 234 nM.
